# Read-outs that look alike come from different tables or passages of the source.
# Columns and labels:
# Assay in all cases: PTP IC50 assay, fluorescent substrate DiFMUP
# Format in all cases: biochemical
# [1] = target: T1, PTP SHP2 (Homo sapiens, UniProt Q06124); conditions: DiFMUP as substrate, 25° C.; read-out: PTP IC50 SHP2
# T1 construct: The catalytic domain was amplified using the following oligonucleotides; made in house; host or cells: Sf-9 insect cells (pFastBac-G2T)
# T1 sequence (Q06124 247-517 limits assumed): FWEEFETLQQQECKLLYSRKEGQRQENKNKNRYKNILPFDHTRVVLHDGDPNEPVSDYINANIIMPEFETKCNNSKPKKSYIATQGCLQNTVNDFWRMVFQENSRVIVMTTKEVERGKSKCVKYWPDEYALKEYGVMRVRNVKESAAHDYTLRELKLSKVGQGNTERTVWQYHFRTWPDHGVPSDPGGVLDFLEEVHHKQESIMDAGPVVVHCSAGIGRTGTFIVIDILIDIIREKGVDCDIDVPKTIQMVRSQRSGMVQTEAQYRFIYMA
# From the text: SHP-2 cDNA was used as described earlier (Vogel W., et al.,1993, Science, 259:1611-4). The catalytic domain was amplified using the following oligonucleotides 5′oligo: 5′-[…]-3′ (SEQ ID NO: 2) 3′oligo: 5′-[…]-3′ (SEQ ID NO: 3) and subsequently subcloned into BamH1-Xba-1 sites. It was then ligated into pfas Bac-G2T BamH1-Xba-1 sites.
# (§1) The following in vitro assay procedure is preferred to determine the level of activity and effect of the different compounds of the present invention on one or more of the PTPs. Similar assays can be designed along the same lines for any PTP using techniques well known in the art.
# (§2) The catalytic assays described herein are performed in a 96-well format. The general procedure begins with the determination of PTP optimal pH using a three-component buffer system that minimizes ionic strength variations across a wide range of buffer pH. Next, the Michaelis-Menten constant, or Km, is determined for the substrate 6,8-difluoro-4-methylumbelliferyl phosphate (DiFMUP). This Km value is subsequently used as the substrate reaction concentration for compound screening. Finally, the test PTP is exposed to varying concentrations of compound for fifteen minutes and allowed to react with substrate for ten minutes. The results are plotted as percent inhibition versus compound concentration and the IC50 interpolated from the plot.
# (§3) All assays were performed using DiFMUP as substrate. The optimum pH and substrate Km was determined for each PTP used.
# (§4) PTPase activity was assayed at 25° C. in a 100-μl reaction mixture containing an appropriate concentration of DiFMUP as substrate. The reaction was initiated by addition of the purified PTP and quenched after 10 min by addition of 1% H2O2/100 mM NaCl. The non-enzymatic hydrolysis of the substrate was corrected by measuring the control without the addition of the enzyme. The amount of DiFMU produced was determined from the increase in the fluorescence (360 nm excitation/460 nm emission) over that of background in the absence of PTPase. To determine the kinetic parameter, Km, the initial velocities were measured at various substrate concentrations and the data were fitted to the Michaelis equation where velocity=(Vmax*[S])/(Km+[S]), and [S]=substrate reaction concentration.
# (§5) The effect of the compounds on PTP was evaluated at 25° C. using DiFMUP as substrate. PTP was pre-incubated for fifteen minutes with various concentrations of compound. Substrate was then added at a fixed concentration (usually equal to the Km previously calculated). After 10 minutes, the reaction was quenched. The hydrolysis of DiFMUP was followed as described above. The percent inhibition was calculated as follows: Percent Inhibition=[(control signal−compound signal)/control signal]×100%. The IC50 was then determined by interpolation of a percent inhibition versus compound concentration plot.
# (§6) Plasmids designed for bacterial GST-PTP fusion protein expression were derived by insertion of PCR-generated human PTP fragments into pGEX vectors (Pharmacia Biotech). Several of these constructs were then used to subclone phosphatases into pFastBac-1 for expression in Sf-9 insect cells. Oligonucleotides used for the initial amplification of PTP genes are as described above. The cDNAs were prepared using the Gilbo BRL superscript preamplification system on RNAs purchased from Clontech.
# [2] = target: T2, PTP 1B (Homo sapiens, UniProt P18031)
# T2 construct: made in house; host or cells: Sf-9 insect cells (pFastBac-G2T)
# T2 sequence (P18031 1-435): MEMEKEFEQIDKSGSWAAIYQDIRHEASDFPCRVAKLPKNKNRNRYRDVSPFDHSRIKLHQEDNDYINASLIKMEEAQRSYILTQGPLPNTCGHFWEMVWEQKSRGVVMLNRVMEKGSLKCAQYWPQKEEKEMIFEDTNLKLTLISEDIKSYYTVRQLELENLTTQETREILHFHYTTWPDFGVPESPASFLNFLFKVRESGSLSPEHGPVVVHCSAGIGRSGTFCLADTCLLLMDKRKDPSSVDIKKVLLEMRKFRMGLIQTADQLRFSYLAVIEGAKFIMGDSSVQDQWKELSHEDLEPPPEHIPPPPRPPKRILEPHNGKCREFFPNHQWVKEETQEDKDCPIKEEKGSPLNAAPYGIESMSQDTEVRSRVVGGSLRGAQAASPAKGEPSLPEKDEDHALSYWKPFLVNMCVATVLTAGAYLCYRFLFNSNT
# From the text: The PTP1b cDNA was amplified from human placenta single strand cDNA (Clontech RNA) using the following oligonucleotides: 5′oligo: 5′-[…] (SEQ ID NO: 4) 3′oligo: 5′-[…] (SEQ ID NO: 5) It was subsequently ligated into pFasBac G2TBamH1Xba-1 sites.
# as §1, §2, §3, §4, §5, §6
# [3] = target: T3, PTP EPSILON (Homo sapiens, UniProt P23469)
# T3 construct: made in house; host or cells: Sf-9 insect cells (pFastBac-G2T); a pGEX 6P-1 construct also existed
# From the text: The PTPepsilon cDNA was amplified from human placenta single-strand cDNA (Clontech RNA) using the following oligonucleotides: 5′oligo: 5′-[…]-3′ (SEQ ID NO: 6) 3′oligo: 5′-[…]-3′ (SEQ ID NO: 7) After cloning this PCR product into the Bam HI/Xho I sites of pGEX 6P-1, this phosphatase was subcloned using the same restriction sites in pFastBac-G2T.
# as §1, §2, §3, §4, §5, §6
# [4] = DiFMUP as substrate, 25° C., read-out: PTP IC50 1B
# [5] = DiFMUP as substrate, 25° C., read-out: PTP IC50 Epilson
# T3 sequence (P23469 80-393 limits assumed): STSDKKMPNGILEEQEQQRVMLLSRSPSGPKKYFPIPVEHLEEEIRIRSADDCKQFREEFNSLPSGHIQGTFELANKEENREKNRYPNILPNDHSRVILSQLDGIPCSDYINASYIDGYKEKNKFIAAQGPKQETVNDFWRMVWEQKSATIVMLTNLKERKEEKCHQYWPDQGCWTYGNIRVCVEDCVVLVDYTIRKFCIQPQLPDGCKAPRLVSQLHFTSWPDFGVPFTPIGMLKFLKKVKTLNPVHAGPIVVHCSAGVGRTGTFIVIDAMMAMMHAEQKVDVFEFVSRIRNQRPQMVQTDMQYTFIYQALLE
IC50 [1] [µM],"IC50 [2, 4] [µM]","IC50 [3, 5] [µM]",SMILES,IC50 [2] [µM],IC50 [3] [µM]
14.6,7.8,17.4,"O=C(Cc1ccccc1CC(=O)Nc1ccc(S(=O)(=O)C(F)(F)F)cc1)Nc1ccc(S(=O)(=O)C(F)(F)F)cc1 [Example 32, N-(4-Trifluoromethanesulfonyl-phenyl)-2-{2-[(4-trifluoromethanesulfonyl-phenylcarbamoyl)-methyl]-phenyl}-acetamide]",,
2.3,2.3,20.4,"O=C(Cc1cccc(CC(=O)Nc2ccc(S(=O)(=O)C(F)(F)F)cc2)c1)Nc1ccc(S(=O)(=O)C(F)(F)F)cc1 [Example 33, N-(4-Trifluoromethanesulfonyl-phenyl)-2-{3-[(4-trifluoromethanesulfonyl-phenylcarbamoyl)-methyl]-phenyl}-acetamide]",,
2.3,3.9,9.1,"O=C(Cc1ccc(CC(=O)Nc2ccc(S(=O)(=O)C(F)(F)F)cc2)cc1)Nc1ccc(S(=O)(=O)C(F)(F)F)cc1 [Example 34, N-(4-Trifluoromethanesulfonyl-phenyl)-2-{4-[(4-trifluoromethanesulfonyl-phenylcarbamoyl)-methyl]-phenyl}-acetamide]",,
31.6,,32.5,"CCn1c(-c2ccc(C(=O)OC)cc2)nc2cc(S(=O)(=O)C(F)(F)F)ccc21 [Example 35, 4-(1-Ethyl-5-trifluoromethanesulfonyl-1H-benzoimidazol-2-yl)-benzoic acid methyl ester]",,
58,> 20,61.2,"CCn1c(-c2ccc(C(=O)O)cc2)nc2cc(S(=O)(=O)C(F)(F)F)ccc21 [Example 36, 4-(1-Ethyl-5-trifluoromethanesulfonyl-1H-benzoimidazol-2-yl)-benzoic acid]",,
19,> 20,20.5,"CCn1c(-c2ccc(C(=O)Nc3ccncc3)cc2)nc2cc(S(=O)(=O)C(F)(F)F)ccc21 [Example 37, 4-(1-Ethyl-5-trifluoromethanesulfonyl-1H-benzoimidazol-2-yl)-N-pyridin-4-yl-benzamide]",,
1.1,1.1,5.1,"CCn1c(-c2ccc(C(=O)Nc3ccc(OC)cc3)cc2)nc2cc(S(=O)(=O)C(F)(F)F)ccc21 [Example 38, 4-(1-Ethyl-5-trifluoromethanesulfonyl-1H-benzoimidazol-2-yl)-N-(4-methoxy-phenyl)-benzamide]",,
> 100,,,"CCOC(=O)CNC(=O)C(c1ccc(S(=O)(=O)C(F)(F)F)cc1)N(C)C(C)=O (centres unmarked) [Example 47, [2-(Acetyl-methyl-amino)-2-(4-trifluoromethanesulfonyl-phenyl)-acetylamino]-acetic acid ethyl ester]",,
37.7,22.7,,"CCOC(=O)CNC(=O)C(c1ccc(S(=O)(=O)C(F)(F)F)cc1)N(C(=O)c1ccccc1)C1CCCCC1 (centres unmarked) [Example 48, [2-(Benzoyl-cyclohexyl-amino)-2-(4-trifluoromethanesulfonyl-phenyl)-acetylamino]-acetic acid ethyl ester]",,
0.7,> 20,,"CCOC(=O)c1cc(Oc2ccc(S(=O)(=O)C(F)(F)F)cc2[N+](=O)[O-])c(C(=O)OCC)cc1Oc1ccc(S(=O)(=O)C(F)(F)F)cc1[N+](=O)[O-] [Example 54, 2,5-Bis-(2-nitro-4-trifluoromethanesulfonyl-phenoxy)-terephthalic acid diethyl ester]",,
3.3,,2.4,"O=[N+]([O-])c1cc(S(=O)(=O)C(F)(F)F)ccc1OCC(CN1CCCCC1)Oc1ccc(S(=O)(=O)C(F)(F)F)cc1[N+](=O)[O-] (centres unmarked) [Example 55, 1-[2,3-Bis-(2-nitro-4-trifluoromethanesulfonyl-phenoxy)-propyl]-piperidine]",,
2.9,4.8,,"O=[N+]([O-])c1cc(S(=O)(=O)C(F)(F)F)ccc1OCC(CN1CCOCC1)Oc1ccc(S(=O)(=O)C(F)(F)F)cc1[N+](=O)[O-] (centres unmarked) [Example 56, 4-[2,3-Bis-(2-nitro-4-trifluoromethanesulfonyl-phenoxy)-propyl]-morpholine]",,
,,,"O=[N+]([O-])c1ccccc1NCC(COc1ccc(S(=O)(=O)C(F)(F)F)cc1[N+](=O)[O-])Oc1ccc(S(=O)(=O)C(F)(F)F)cc1[N+](=O)[O-] (centres unmarked) [Example 57, [2,3-Bis-(2-nitro-4-trifluoromethanesulfonyl-phenoxy)-propyl]-(2-nitro-phenyl)-amine]",> 20,0.6
1.7,,7.4,"NS(=O)(=O)c1ccc(NCC(O)COc2ccc(S(=O)(=O)C(F)(F)F)cc2[N+](=O)[O-])cc1 (centres unmarked) [Example 61, 4-[2-Hydroxy-3-(2-nitro-4-trifluoromethanesulfonyl-phenoxy)-propylamino]-benzenesulfonamide]",,
2.3,,5.7,"NS(=O)(=O)c1ccc(NCC(COc2ccc(S(=O)(=O)C(F)(F)F)cc2[N+](=O)[O-])Oc2ccc(S(=O)(=O)C(F)(F)F)cc2[N+](=O)[O-])cc1 (centres unmarked) [Example 62, 4-[2,3-Bis-(2-nitro-4-trifluoromethanesulfonyl-phenoxy)-propylamino]-benzenesulfonamide]",,
5.9,5.4,,"O=S(=O)(c1ccc(-c2ncc(-c3ccc4ccccc4c3)o2)cc1)C(F)F [Example 64, 2-[4-(Difluoro-methanesulfonyl)-phenyl]-5-naphthalen-2-yl-oxazole]",,
13.1,11.5,,"Cc1ccc(Nc2ccc(S(=O)(=O)C(F)(F)C(F)F)cc2[N+](=O)[O-])cc1 [Example 65, [2-Nitro-4-(1,1,2,2-tetrafluoro-ethanesulfonyl)-phenyl]-p-tolyl-amine]",,
,17.4,> 20,"Cc1cc2cc(NS(=O)(=O)C(F)(F)F)ccc2n1CC(=O)Nc1ccc(C(=O)O)cc1 [Example 85, 4-[2-(2-Methyl-5-trifluoromethanesulfonylamino-indol-1-yl)-acetylamino]-benzoic acid]",,
